This note sets out measurements from patent publication US8871767B2, “2-arylimidazo[1,2-B]pyridazine, 2-phenylimidazo[1,2-A]pyridine, and 2-phenylimidazo[1,2-A]pyrazine derivatives” (Hengrui (USA) Ltd., priority 2010, dated 2014).

Molecules are shown by their SMILES. Like-named read-outs stand apart in the source and are kept apart here.

Experiment [1] concerns Hedgehog pathway activation on 10T1/2/Smo#3 cells (C3H10T1/2 cells transfected with human Smoothened receptor). Put plainly: Hedgehog pathway activation on 10T1/2/Smo#3 cells measured by ALP activity. The experiment is classed as cell-based. The essentials: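 Inhibition of alkaline phosphatase induction, read fluorometrically from 4-methylumbelliferyl phosphate conversion, gave IC50 values; CellTiter-Blue tracked viability in parallel. Cells were the human Smo-transfected 10T1/2/Smo#3 pool, stimulated by 10-20% hShh conditioned medium or the Smo agonist SAG (500 nM).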

For experiment [2], the system named is Hedgehog pathway activation (GLi-luciferase reporter) in Shh Light II reporter cells. As to the kind of experiment: Hedgehog pathway activation on Shh Light II reporter cells measured by luciferase activity. Format: cell-based. The essentials: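 Shh Light II reporter cells carrying a hedgehog-responsive GLi-luciferase reporter were stimulated either with 500 nM SAG, a direct Smoothened agonist, or with conditioned media containing human Sonic Hedgehog (hShh). Test compounds were evaluated for blocking this pathway activation, quantified by luciferase activity. Cell viability was monitored in parallel with the Celltiter-Blue® assay.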

Setting [3] is: Mus musculus, C3H 10T1/2, 10T1/2/Smo#3 cells, measured by ALP activity, read-out: ALP (IC50, inhibition of Hedgehog pathway activation).
Where [4] appears, read: Mus musculus, Shh Light II, hShh activation, read-out: Shh (IC50, inhibition of Hedgehog pathway activation).
[5] abbreviates: Mus musculus, C3H 10T1/2, 10T1/2/Smo#3 cells, hShh activation, ALP activity, read-out: 10T1/2/Smo#3 ALP activity (hShh Activation).
Setting [6] is: Mus musculus, Shh Light II, SAG activation (500 nM SAG), read-out: Shh Light II luciferase activity (SAG activation).
The mark [7] stands for this setting: Mus musculus, Shh Light II, hShh activation, read-out: Shh Light II luciferase activity (hShh activation).

`CNC1CCN(c2ccc3nc(-c4ccc(C)c(NC(=O)C(C)(C)C)c4)cn3n2)C1` (centres unmarked) [Example 473, N-(2-methyl-5-(6-(3-(methylamino)pyrrolidin-1-yl)imidazo[1,2-b]pyridazin-2-yl)phenyl)pivalamide]: the IC50 in experiment [1] (10T1/2/Smo#3 cells, measured by ALP activity, read-out: ALP (IC50, inhibition of Hedgehog pathway activation)) was found to be 93 nM; in experiment [2] (hShh activation, read-out: Shh (IC50, inhibition of Hedgehog pathway activation)) it was 77 nM.

With `COc1ccc2nc(-c3ccc(Cl)c(NC(=O)CC(F)(F)F)c3)cn2n1` [Example 111, N-(2-chloro-5-(6-methoxyimidazo[1,2-b]pyridazin-2-yl)phenyl)-3,3,3-trifluoropropanamide], the IC50 is 9020 nM in experiment [1] (setting [3]) and over 10000 nM in experiment [2] (setting [4]).

Turning to `CCOc1ccc2nc(-c3ccc(C(F)(F)F)c(NC(=O)C4CC4)c3)cn2n1` [Example 186, N-(5-(6-ethoxyimidazo[1,2-b]pyridazin-2-yl)-2-(trifluoromethyl)phenyl)cyclopropanecarboxamide], the IC50 in experiment [1] (setting [3]) was 8380 nM; in experiment [2] (setting [4]), over 10000 nM.

With `Cc1ccc(-c2cn3nc(-c4cccnc4C(F)(F)F)ccc3n2)cc1NC(=O)NC(C)(C)C` [Example 646, 1-tert-butyl-3-(2-methyl-5-(6-(2-(trifluoromethyl)pyridin-3-yl)imidazo[1,2-b]pyridazin-2-yl)phenyl)urea], the IC50 in experiment [1] (setting [5]) is under 300 nM; in experiment [1] (setting [3]), 16 nM; in experiment [2] (setting [6]), 300 to 3000 nM; in experiment [2] (setting [4]), 38 nM; in experiment [2] (setting [7]) it was under 300 nM.

In the case of `Cc1c(-c2ccccc2)nc2ccc(N3CCN(Cc4ccc(F)cc4F)CC3)nn12` [Example 164, 6-(4-(2,4-difluorobenzyl)piperazin-1-yl)-3-methyl-2-phenylimidazo[1,2-b]pyridazine], the IC50 in experiment [1] (setting [3]) came out at 550 nM; in experiment [2] (setting [4]), 463 nM.

In the case of `Cc1ccc(-c2cn3nc(N4CCC(N(C)C)C4)ccc3n2)cc1NC(=O)C(C)(C)C` (centres unmarked) [Example 361, N-(5-(6-(3-(dimethylamino)pyrrolidin-1-yl)imidazo[1,2-b]pyridazin-2-yl)-2-methylphenyl)pivalamide], the IC50 in experiment [1] (setting [3]) turned out to be 110 nM; in experiment [2] (setting [4]), 84 nM.

`Cc1c(-c2ccccc2)nc2ccc(N3CCN(C(=O)c4ccccc4)CC3)nn12` [Example 154, (4-(3-methyl-2-phenylimidazo[1,2-b]pyridazin-6-yl)piperazin-1-yl)(phenyl)methanone]: the IC50 was 2890 nM in experiment [1] (setting [3]) and 3400 nM in experiment [2] (setting [4]).

As to `C[C@H]1CCCC[C@H]1Oc1ccc2nc(-c3ccc(C(F)(F)F)c(NC(=O)C(C)(C)C)c3)cn2n1` [Example 308, N-(5-(6-((1R,2S)-2-methylcyclohexyloxy)imidazo[1,2-b]pyridazin-2-yl)-2-(trifluoromethyl)phenyl)pivalamide], the IC50 was determined as 1200 nM in experiment [1] (setting [3]) and 1070 nM in experiment [2] (setting [4]).

For the compound `Cc1ccc(-c2ccc3nc(-c4ccc(C(F)(F)F)c(NC(=O)C(C)(C)C)c4)cn3n2)c(F)c1` [Example 205, N-(5-(6-(2-fluoro-4-methylphenyl)imidazo[1,2-b]pyridazin-2-yl)-2-(trifluoromethyl)phenyl)pivalamide], the IC50 in experiment [1] (setting [3]) turned out to be 196 nM; in experiment [2] (setting [4]) it was 279 nM.

For the compound `CCN[C@@H]1CCN(c2ccc3nc(-c4ccc(C(F)(F)F)c(NC(=O)C(C)(C)C)c4)cn3n2)C1` [Example 635, (R)—N-(5-(6-(3-(ethylamino)pyrrolidin-1-yl)imidazo[1,2-b]pyridazin-2-yl)-2-(trifluoromethyl)phenyl)pivalamide], the IC50 was determined as 159 nM in experiment [1] (setting [3]) and 110 nM in experiment [2] (setting [4]).

With `COc1ccccc1-c1ccc2nc(-c3ccc(C(F)(F)F)c(NC(=O)C(C)(C)C)c3)cn2n1` [Example 172, N-(5-(6-(2-methoxyphenyl)imidazo[1,2-b]pyridazin-2-yl)-2-(trifluoromethyl)phenyl)pivalamide], the IC50 came out at 403 nM in experiment [1] (setting [3]) and 936 nM in experiment [2] (setting [4]).

`CCOC(=O)CCCCCOc1cccc(-c2ccc3nc(-c4ccc(C)c(NC(=O)C(C)(C)C)c4)cn3n2)c1C(F)(F)F` [Example 422, ethyl 6-(3-(2-(4-methyl-3-pivalamidophenyl)imidazo[1,2-b]pyridazin-6-yl)-2-(trifluoromethyl)phenoxy)hexanoate]: the results for the IC50 in experiment [1] (setting [3]) and in experiment [2] (setting [4]) were 312 nM and 869 nM, respectively.

For `Cc1ccc(-c2cn3nc(-c4cccnc4C(F)(F)F)ccc3n2)cc1NC(=O)C1CCCN1C` (centres unmarked) [Example 647, 1-methyl-N-(2-methyl-5-(6-(2-(trifluoromethyl)pyridin-3-yl)imidazo[1,2-b]pyridazin-2-yl)phenyl)pyrrolidine-2-carboxamide], the IC50 in experiment [1] (setting [3]) amounted to 94 nM; in experiment [2] (setting [4]), 186 nM.

Take `Cc1c(-c2ccccc2F)nn2cc(-c3ccc(C(F)(F)F)c(NC(=O)C(C)(C)C)c3)nc2c1C` [Example 200, N-(5-(6-(2-fluorophenyl)-7,8-dimethylimidazo[1,2-b]pyridazin-2-yl)-2-(trifluoromethyl)phenyl)pivalamide]: the IC50 in experiment [1] (setting [3]) amounted to 284 nM; in experiment [2] (setting [4]), 281 nM.

Regarding `Cc1ccc(-c2cn3nc(-c4cc(C#N)ccc4F)ccc3n2)cc1NC(=O)C(C)(C)C` [Example 274, N-(5-(6-(5-cyano-2-fluorophenyl)imidazo[1,2-b]pyridazin-2-yl)-2-methylphenyl)pivalamide], the IC50 in experiment [1] (setting [3]) worked out at 20 nM; in experiment [2] (setting [4]) it was 144 nM.

In the case of `CC(C)(C)C(=O)Nc1cc(-c2cn3nc(N4CCC(F)(F)C4)ccc3n2)ccc1C(F)(F)F` [Example 236, N-(5-(6-(3,3-difluoropyrrolidin-1-yl)imidazo[1,2-b]pyridazin-2-yl)-2-(trifluoromethyl)phenyl)pivalamide], the IC50 in experiment [1] (setting [3]) turned out to be 100 nM; in experiment [2] (setting [4]) it was 289 nM.

Turning to `Cc1ccc(-c2cn3nc(-c4ccc(C(N)=O)cc4C(F)(F)F)ccc3n2)cc1NC(=O)C(C)(C)C` [compound 508], the IC50 in experiment [1] (setting [5]) is under 300 nM; in experiment [1] (setting [3]) it was 110 nM; in experiment [2] (setting [6]) it was 300 to 3000 nM; in experiment [2] (setting [4]) it was 92 nM; in experiment [2] (setting [7]), under 300 nM.

As to `CCOc1ccc2nc(-c3ccc(C(F)(F)F)c(NC(=O)c4ccccc4F)c3)cn2n1` [Example 192, N-(5-(6-ethoxyimidazo[1,2-b]pyridazin-2-yl)-2-(trifluoromethyl)phenyl)-2-fluorobenzamide], the IC50 came to 4760 nM in experiment [1] (setting [3]) and 1580 nM in experiment [2] (setting [4]).

On to `Cc1ccnc(-c2ccc3nc(-c4ccc(C(F)(F)F)c(NC(=O)C(C)(C)C)c4)cn3n2)c1` [Example 151, N-(5-(6-(4-methylpyridin-2-yl)imidazo[1,2-b]pyridazin-2-yl)-2-(trifluoromethyl)phenyl)pivalamide], for which the values for the IC50 in experiment [1] (setting [3]) and in experiment [2] (setting [4]) were 1810 nM and 899 nM, respectively.

For `CCOC(=O)COc1ccc(-c2ccc3nc(-c4ccc(C)c(NC(=O)C(C)(C)C)c4)cn3n2)c(C(F)(F)F)c1` [Example 411, ethyl 2-(4-(2-(4-methyl-3-pivalamidophenyl)imidazo[1,2-b]pyridazin-6-yl)-3-(trifluoromethyl)phenoxy)acetate], the IC50 in experiment [1] (setting [3]) worked out at 679 nM; in experiment [2] (setting [4]), 251 nM.

Turning to `Cc1ccc(-c2cn3nc(-c4cccnc4C(F)(F)F)ccc3n2)cc1NC(=O)NC1CC1` [Example 651, 1-cyclopropyl-3-(2-methyl-5-(6-(2-(trifluoromethyl)pyridin-3-yl)imidazo[1,2-b]pyridazin-2-yl)phenyl)urea], the IC50 in experiment [1] (setting [3]) amounted to 127 nM; in experiment [2] (setting [4]), 139 nM.

With `CC(C)(C)C(=O)Nc1cc(-c2cn3nc(N4CCC(O)CC4)ccc3n2)ccc1C(F)(F)F` [Example 237, N-(5-(6-(4-hydroxypiperidin-1-yl)imidazo[1,2-b]pyridazin-2-yl)-2-(trifluoromethyl)phenyl)pivalamide], the IC50 in experiment [1] (setting [3]) was determined as 211 nM; in experiment [2] (setting [4]) it was 245 nM.

As to `COc1cccc(-c2ccc3nc(-c4ccc(C(F)(F)F)c(NC(=O)C(C)(C)C)c4)cn3n2)n1` [Example 147, N-(5-(6-(6-methoxypyridin-2-yl)imidazo[1,2-b]pyridazin-2-yl)-2-(trifluoromethyl)phenyl)pivalamide], the IC50 in experiment [1] (setting [3]) was over 10000 nM; in experiment [2] (setting [4]), 1040 nM.

In the case of `CC(C)(C)C(=O)Nc1cc(-c2cn3nc(-c4ccncc4F)ccc3n2)ccc1C(F)(F)F` [Example 177, N-(5-(6-(3-fluoropyridin-4-yl)imidazo[1,2-b]pyridazin-2-yl)-2-(trifluoromethyl)phenyl)pivalamide], the results for the IC50 in experiment [1] (setting [3]) and in experiment [2] (setting [4]) were 236 nM and 357 nM, respectively.

In the case of `CC(C)(C)C(=O)Nc1cc(-c2cn3nc(-c4cccc(O)c4)ccc3n2)ccc1C(F)(F)F` [Example 242, N-(5-(6-(3-hydroxyphenyl)imidazo[1,2-b]pyridazin-2-yl)-2-(trifluoromethyl)phenyl)pivalamide], the IC50 in experiment [1] (setting [3]) was 446 nM; in experiment [2] (setting [4]), 402 nM.

`Cc1c(-c2cccc(NC(=O)C3CCCCC3)c2)nc2ncccn12` [Example 92, N-(3-(3-methylimidazo[1,2-a]pyrimidin-2-yl)phenyl)cyclohexanecarboxamide]: the IC50 in experiment [1] (setting [5]), in experiment [2] (setting [6]) and in experiment [2] (setting [7]) was 3000 to 30000 nM throughout.
